Source: ChEMBL document CHEMBL1150075, “Apiosporamide, a new antifungal agent from the coprophilous fungus Apiospora montagnei” (1994)
The source made the active and inactive calls. No cut-off for these calls is given here.

Tests used:
Candida albicans = assay: Antifungal activity against Candida albicans ATCC 14053 at 200 ug/disk; assay type: functional, organism-based
Bacillus subtilis = assay: Antibacterial activity against Bacillus subtilis ATCC 6051 at 200 ug/disk; assay type: functional; conditions: read-out: IZ
Ascobolus = assay: Antifungal activity against Ascobolus furfuraceus NRRL 6460 assessed as inhibition of radial growth rate at 200 ug/disk relative to control; assay type: functional; parameters: scale not given: the % may be the effect or the level left
Staphylococcus aureus = assay: Antibacterial activity against Staphylococcus aureus ATCC 29213 at 200 ug/disk; assay type: functional; conditions: read-out: IZ

C[C@H]1CC[C@@H]2[C@@H](C(=O)c3c(O)c([C@]4(O)CC[C@@H](O)[C@H]5O[C@H]54)c[nH]c3=O)[C@@H](C)C=C[C@H]2C1 [APIOSPORAMIDE]
Activity (Candida albicans): inactive | zone of inhibition at 200 µg/disc (Bacillus subtilis): 32 mm | Activity (Ascobolus): 53% | zone of inhibition at 200 µg/disc (Staphylococcus aureus): 21 mm
